Test systems include UO-31 renal; LOX IMVI melanoma; CAKI-1 renal; IGROV1 ovarian; KM12 colon; SF-295 CNS; K-562 leukemia; SK-OV-3 ovarian; HT29 colon; U251 CNS.
Holding throughout (assay): inhibition of tumour cell growth, NCI panel, 48 h

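Interpolation was linear, between the two tested concentrations surrounding the appropriate level; five concentrations were tested over 48 hours in 96-well plates. Abbreviation: GI50, concentration required for 50% inhibition of growth. TGI denotes the concentration required for complete inhibition of growth.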 Where only a bound is given, the exact number is not on record here.

On to `COc1cc2c(cc1OCCCCC(=O)Nc1ccc(-c3nc4ccccc4s3)cc1)N=C[C@@H]1CCCN1C2=O`, for which the GI50 was 1.66 µM in the test with UO-31 renal; 1.57 µM in the test with LOX IMVI melanoma; 2.2 µM in the test on CAKI-1 renal; 0.695 µM in the test on IGROV1 ovarian; 2.94 µM with KM12 colon; 0.556 µM in the test on SF-295 CNS. The GI50 with K-562 leukemia was 1.75 µM; in the test on SK-OV-3 ovarian, 4.48 µM; in the test with HT29 colon, 2.16 µM; in the test on U251 CNS, 1.9 µM. The TGI with UO-31 renal is 3.66 µM; in the test with LOX IMVI melanoma, 2.91 µM; in the test with CAKI-1 renal, 5.96 µM; in the test on IGROV1 ovarian it was 2.27 µM; in the test on KM12 colon, 12.4 µM; in the test on SF-295 CNS, 3.37 µM. Moreover, the TGI in the test on K-562 leukemia was found to be 11 µM; in the test with SK-OV-3 ovarian, 14.5 µM; in the test on HT29 colon, 7.75 µM; with U251 CNS, 6.63 µM.
As to `Cc1cc[c-]cc1.Fc1c[c-]c(-c2ccccn2)c(F)c1.N#CCC[PH+](CCC#N)c1ccccc1.[Pt+2]`, the GI50 in the test on UO-31 renal is 1.45 µM; with LOX IMVI melanoma, 2.26 µM; with CAKI-1 renal it was 2.7 µM; in the test on IGROV1 ovarian it was 2.89 µM; with KM12 colon it was 3.39 µM; in the test on SF-295 CNS, 3.91 µM. For the same compound, the GI50 in the test on K-562 leukemia is 3.48 µM; with SK-OV-3 ovarian, 8.37 µM; with HT29 colon, 3.24 µM; with U251 CNS, 3.61 µM. The TGI with UO-31 renal is 2.82 µM; in the test with LOX IMVI melanoma, 5.18 µM; with CAKI-1 renal, 14.1 µM; in the test on IGROV1 ovarian it was 21.9 µM; in the test on KM12 colon, 13.2 µM; in the test with SF-295 CNS, 29.8 µM. For the same compound, the TGI in the test on K-562 leukemia was > 100 µM; with SK-OV-3 ovarian it was > 100 µM; in the test on HT29 colon, 17.8 µM; in the test with U251 CNS, 15.4 µM.
For the compound `Cc1cn(C2C=CC(=O)C(C)O2)c(=O)[nH]c1=O` (stereo not given), the TGI with UO-31 renal is 27.7 µM; in the test with LOX IMVI melanoma, 26.6 µM; in the test with CAKI-1 renal it was 31.5 µM; with IGROV1 ovarian it was 34.4 µM; with KM12 colon it was 30.1 µM; with SF-295 CNS it was 31.3 µM. The TGI in the test with K-562 leukemia is 36.9 µM; in the test with SK-OV-3 ovarian, > 100 µM; in the test on HT29 colon it was 33.4 µM; with U251 CNS, 28.6 µM.
For `CC(C)C(/C=C/c1ccccc1)=N\NC(=O)N/N=C(/C=C/c1ccccc1)C(C)C`, the TGI in the test on UO-31 renal was 93 µM; with LOX IMVI melanoma, > 100 µM; in the test on CAKI-1 renal it was 30.6 µM; with IGROV1 ovarian, > 100 µM; in the test with KM12 colon it was > 100 µM; with SF-295 CNS, > 100 µM. Besides, the TGI with K-562 leukemia, with SK-OV-3 ovarian, in the test on HT29 colon and in the test on U251 CNS was > 100 µM each time.
Take `CCOC(=O)Nc1nc2c(F)c(F)c(F)cc2s1`: the GI50 in the test with UO-31 renal was > 100 µM; in the test on LOX IMVI melanoma, > 100 µM; in the test with CAKI-1 renal it was > 100 µM; in the test on IGROV1 ovarian, > 100 µM; with KM12 colon, > 100 µM; in the test with SF-295 CNS, 38.8 µM. Besides, the GI50 with K-562 leukemia was > 100 µM; in the test on SK-OV-3 ovarian, 45.2 µM; in the test on HT29 colon it was > 100 µM; in the test with U251 CNS, 36.7 µM. Further, the TGI with UO-31 renal, in the test with LOX IMVI melanoma, in the test on CAKI-1 renal, with IGROV1 ovarian, in the test with KM12 colon and with SF-295 CNS was > 100 µM each time. The TGI in the test with K-562 leukemia, with SK-OV-3 ovarian, in the test on HT29 colon and in the test with U251 CNS was > 100 µM in each case.
As to `O=C1Nc2ccccc2C12CC(c1ccccc1)=NN2` (stereo not given), the GI50 in the test on UO-31 renal is 14.6 µM; with LOX IMVI melanoma, 6.46 µM; with CAKI-1 renal, 7.57 µM; with IGROV1 ovarian, 5.75 µM; in the test on KM12 colon, 4.76 µM; in the test on SF-295 CNS, 4.84 µM. Besides, the GI50 in the test with K-562 leukemia is 3.98 µM; in the test on SK-OV-3 ovarian, 9.12 µM; in the test on HT29 colon, 3.73 µM; with U251 CNS, 5.4 µM. Moreover, the TGI with UO-31 renal is > 100 µM; in the test with LOX IMVI melanoma, 87.4 µM; with CAKI-1 renal, > 100 µM; with IGROV1 ovarian, 75.9 µM; in the test with KM12 colon it was > 100 µM; in the test with SF-295 CNS, > 100 µM. Moreover, the TGI in the test on K-562 leukemia is > 100 µM; in the test on SK-OV-3 ovarian, > 100 µM; in the test on HT29 colon, 27.5 µM; in the test on U251 CNS, > 100 µM.
Regarding `COc1ccc(C(=O)Nc2ncc(Cc3ccc(F)cc3)s2)cc1`, the GI50 with UO-31 renal was 0.908 µM; with LOX IMVI melanoma it was 0.0673 µM; in the test on CAKI-1 renal, 0.0446 µM; in the test on IGROV1 ovarian it was 0.0957 µM; with KM12 colon it was 0.0408 µM; in the test with SF-295 CNS it was 0.0614 µM. For the same compound, the GI50 was 0.0377 µM in the test on K-562 leukemia, 0.277 µM in the test with SK-OV-3 ovarian, 0.0438 µM in the test on HT29 colon and 0.0686 µM in the test on U251 CNS. For the same compound, the TGI with UO-31 renal was > 100 µM; in the test on LOX IMVI melanoma it was > 100 µM; with CAKI-1 renal, 30.7 µM; with IGROV1 ovarian it was 97.7 µM; in the test on KM12 colon it was 6.2 µM; in the test on SF-295 CNS it was 2.03 µM. The TGI in the test on K-562 leukemia is > 100 µM; in the test with SK-OV-3 ovarian, > 100 µM; in the test with HT29 colon, > 100 µM; with U251 CNS it was > 89.1 µM.
Take `COc1cc(/C=C/C(=O)c2c(C)n([O-])c3cc(C)c(C)cc3[n+]2=O)cc(OC)c1OC`: the GI50 in the test with UO-31 renal was 15.4 µM; with LOX IMVI melanoma, 11.9 µM; in the test with CAKI-1 renal it was 10.8 µM; in the test with IGROV1 ovarian, 12.8 µM; with KM12 colon, 13.1 µM; in the test with SF-295 CNS, 13.2 µM. The GI50 was 18.7 µM in the test with K-562 leukemia, 32.4 µM in the test with SK-OV-3 ovarian, 18.6 µM in the test with HT29 colon and 12 µM in the test on U251 CNS. Further, the TGI in the test on UO-31 renal is 32.3 µM; in the test on LOX IMVI melanoma, 29.2 µM; in the test on CAKI-1 renal it was 29.6 µM; in the test with IGROV1 ovarian, 29.4 µM; with KM12 colon, 32.6 µM; in the test on SF-295 CNS, 34.8 µM. Besides, the TGI in the test on K-562 leukemia was > 100 µM; in the test with SK-OV-3 ovarian, 91.9 µM; in the test on HT29 colon, 34.7 µM; in the test with U251 CNS, 25.8 µM.
On to `O=C1CC(c2ccccc2)Cc2nc3ccc(Cl)cc3cc21` (stereo not given), for which the GI50 with UO-31 renal is 0.263 µM; in the test on LOX IMVI melanoma, 0.626 µM; with CAKI-1 renal it was 0.112 µM; with IGROV1 ovarian it was 0.397 µM; in the test on KM12 colon, 0.342 µM; with SF-295 CNS it was 0.339 µM. The GI50 in the test on K-562 leukemia was 0.0859 µM; in the test on SK-OV-3 ovarian, 0.753 µM; in the test with HT29 colon it was 0.246 µM; in the test with U251 CNS, 0.644 µM. Besides, the TGI is > 93 µM in the test on UO-31 renal; 26.2 µM in the test with LOX IMVI melanoma; > 100 µM in the test with CAKI-1 renal; > 100 µM in the test on IGROV1 ovarian; 22.7 µM in the test on KM12 colon; 17.3 µM with SF-295 CNS. For the same compound, the TGI in the test on K-562 leukemia was > 100 µM; in the test on SK-OV-3 ovarian, > 100 µM; in the test on HT29 colon, > 100 µM; in the test on U251 CNS, > 62.2 µM.
As to `COc1cc(NCC(C#N)C#N)ccc1N=Nc1ccc([N+](=O)[O-])cc1`, the TGI with UO-31 renal, with LOX IMVI melanoma, with CAKI-1 renal, in the test with IGROV1 ovarian, in the test with KM12 colon and in the test with SF-295 CNS was > 100 µM in each case. Besides, the TGI in the test with K-562 leukemia, with SK-OV-3 ovarian, with HT29 colon and with U251 CNS was > 100 µM each time.
In the case of `CSc1nc(Cl)c(Br)c(Nc2c[nH]c(=O)[nH]c2=O)n1`, the TGI in the test on UO-31 renal stood at 37.5 µM; in the test with LOX IMVI melanoma, 39.3 µM; with CAKI-1 renal, 3.22 µM; with IGROV1 ovarian it was 19.9 µM; in the test with KM12 colon, 67.8 µM; with SF-295 CNS, 42.6 µM. Also, the TGI with K-562 leukemia was > 100 µM; in the test on SK-OV-3 ovarian, 42.7 µM; in the test with HT29 colon, 29.4 µM; with U251 CNS, 48.5 µM.
`CC(=O)Nc1ccc(-c2nnc(SCC(=O)Nc3ccccc3[N+](=O)[O-])o2)cc1`: the TGI in the test on UO-31 renal, in the test on LOX IMVI melanoma, in the test with CAKI-1 renal, in the test with IGROV1 ovarian, in the test with KM12 colon and with SF-295 CNS was > 100 µM throughout. Besides, the TGI in the test with K-562 leukemia, in the test with SK-OV-3 ovarian, with HT29 colon and in the test on U251 CNS was > 100 µM each time.
Consider `Cc1cc(C)cc(Nc2nccc(-c3c(-c4ccc(F)cc4)ncn3C3CCNCC3)n2)c1`, for which the GI50 with UO-31 renal is 0.692 µM; in the test on LOX IMVI melanoma it was 1.54 µM; with CAKI-1 renal it was 1.24 µM; in the test on IGROV1 ovarian it was 0.312 µM; in the test with KM12 colon, 1.74 µM; in the test on SF-295 CNS it was 1.85 µM. The GI50 in the test on K-562 leukemia is 1.03 µM; in the test on SK-OV-3 ovarian, 2.13 µM; in the test on HT29 colon, 0.78 µM; in the test with U251 CNS, 1.65 µM. Further, the TGI came to 2.15 µM in the test with UO-31 renal; 2.88 µM with LOX IMVI melanoma; 2.72 µM in the test on CAKI-1 renal; 1.67 µM in the test on IGROV1 ovarian; 3.57 µM in the test on KM12 colon; 3.58 µM in the test with SF-295 CNS. Further, the TGI came out at 3.59 µM in the test on K-562 leukemia, 5.09 µM in the test with SK-OV-3 ovarian, 2.43 µM in the test with HT29 colon and 3.25 µM with U251 CNS.

The values are drawn from PubChem BioAssay (NCI).
